Measurements reported in US20220339187A1, “ANTIMICROBIAL PEPTIDE-SELENIUM NANOPARTICLES” (The University of Melbourne, priority 2019, published 2022).

Assays:
[1] = system: Gram-negative cells (E. coli, A. baumannii and K. pneumoniae); assay: Helium ion microscopy (HIM) of treated bacteria; format: cell-based; conditions: 90 min incubation
Protocol: (§1) The morphologies of bacterial strains methicillin-sensitive S. aureus (MSSA) ATCC 29213, E. faecalis ATCC 29212, E. coli ATCC 25922, A. baumannii 2208 ATCC19606 and K. pneumoniae ATCC 13883 after treatment with Se NPs, Se NP-ε-PL or pure ε-PL were observed using Helium Ion Microscopy (HIM, Zeiss, Germany). The samples were prepared in the following steps. First, 100 μL of 125 μg/mL Se NPs, Se NP-ε-PL or pure ε-PL in PBS solution was added to each well of 96-well microplates, 100 μL pure PBS was used as untreated control. Afterwards, 100 μL MHB with 1.25×10^7/mL bacteria was added to each well. After 90 min incubation, 10 μL of both treated and untreated bacteria was dropped on clean silicon wafers, and they were then dried at 37° C. for 20 min. The dried samples were transferred to a 12-well plate, 2.5% glutaraldehyde was added to each well to fix the bacteria cells for 1 h, then gradient ethanol solution (30%, 50%, 60%, 70%, 80%, 90%, 95% and 100%) was used for dehydration. The prepared samples were dried in the fume hood overnight before use.

E. coli ATCC 25922 = assay: Adenosine triphosphate (ATP) test (BacTiter-Glo); format: cell-based, Escherichia coli; conditions: 1 h at 37° C.
Protocol: The bacterial strains methicillin-sensitive S. aureus ATCC 29213, E. faecalis ATCC 29212, E. coli ATCC 25922 and K. pneumoniae ATCC 13883 were cultured in MHB at 37° C. 50 μL of Se NPs, Se NP-ε-PL or pure ε-PL in PBS solution was added into each well of 96-well microplates. 50 μL MHB with 2.5×10^6 cells/mL bacteria was then added into each well. After 1h incubation at 37° C., the 96-well microplates were transferred to room temperature for a further 30 min incubation period. 100 μL of BacTiter-Glo™ reagent (Promega, Australia) was added into each well, then mixed on an orbital shaker and incubated for 5 min. The luminescence was recorded using a microplate reader (PerkinElmer 1420 Multilabel Counter VICTOR3).
A standard curve was generated by adopting the following steps. 10-fold serial dilutions of ATP from 1 μM to 10 pM in 100 μL MHB were prepared. 100 μL of BacTiter-Glo™ reagent was added into each well, then mixed on an orbital shaker and incubated for 1 min. The luminescence was recorded using a microplate reader (PerkinElmer 1420 Multilabel Counter VICTOR3).

[2] = system: all tested bacterial strains (S. aureus, E. faecalis, E. coli, A. baumannii, P. aeruginosa, K. pneumoniae); assay: Membrane disruption test (PI-positive cells); format: cell-based; conditions: 6.25 or 12.5 μg/ml, 90 min
Protocol: The bacterial strains methicillin-sensitive S. aureus ATCC 29213, E. faecalis ATCC 29212, E. coli ATCC 25922, A. baumannii 2208 ATCC19606, P. aeruginosa strain PAO1-LAC ATCC 47085 and K. pneumoniae ATCC 13883 were cultured in MHB at 37° C. 50 μL of different concentrations of Se NPs, Se NP-ε-PL or pure ε-PL in PBS solution was added into each well of 96-well microplates. 50 μL MHB with 2.5×10^6 cells/mL bacteria was then added into each well. 50 μL MHB with 2.5×10^6 cells/mL bacteria was added to 50 μL PBS to act as untreated control. After 90 min incubation at 37° C., 0.1% of a green-fluorescent nucleic acid stain (SYTO 9, Thermo Fisher Scientific) and 0.1% of propidium iodide (PI) were added to each well and incubated again for 5 min. SYTO 9 can stain both live and dead Gram-positive and Gram-negative bacteria. PI is a red-florescent nuclear and chromosome counterstain but is not permeant to cells with intact plasma membranes. A Cell Lab Quanta SC MPL flow cytometer (Beckman Coulter) was adopted to measure the percent of PI-positive cells. Two independent tests were performed, and two parallel samples were used in each test for each variation.

E. faecalis ATCC 29212 = assay: Helium ion microscopy (HIM) of treated bacteria; format: cell-based, Enterococcus faecalis; conditions: 90 min incubation
Protocol: as §1

Substance: ε-poly-L-lysine [ε-PL]
- cell morphology after treatment (HIM) [1]: membranes of E. coli, A. baumannii and K. pneumoniae cells were disrupted
- ATP depletion (E. coli ATCC 25922): higher ATP depletion effect than Se NPs
- cell membrane disruption (PI positive cells) [2]: membrane disruption effects
- cell morphology after treatment (HIM) (E. faecalis ATCC 29212): some were dead and distorted
